In patent US20080319175A1, “Transthyretin Stabilization” (The Scripps Research Institute, priority 2004, published 2008):

Legend:
[1] = precipitation of small molecule under acid-mediated amyloidogenic conditions in the absence of TTR; assay type: physicochemical; settings: 3.6 μM, pH 4.4, 37° C., 72 h
Description: TTR amyloid inhibition efficacy was probed using a stagnant fibril formation assay described previously, wherein partial denaturation was triggered by acidification (pH 4.4, 37° C.) (Colon, W.; Kelly, J. W. Biochemistry 1992, 31, 8654-8660). Briefly, a test compound (7.2 or 3.6 μM) is incubated with TTR (3.6 μM) for 30 min in pH 7 buffer. Amyloidogenesis is then initiated by lowering to pH 4.4, where maximal fibril formation is observed with WT-TTR after 72 h (37° C.). The turbidity in the presence of a potential inhibitor (Ttest) is compared to that of a solution lacking a test compound (Tcontrol). […] From experience we know that excellent inhibitors allow <10% fibril formation at a small molecule concentration of 7.2 μM and <40% fibril formation at a concentration equal to that of WT-TTR (3.6 μM) (Hammarstrom, P.; et al. Science 2003, 299, 713-716; Klabunde, T.; et al. Nature Struct. Biol. 2000, 7, 312-321; Razavi, H.; et al. Angew Chem 2003, 42, 2758-2761; Miroy, G. J.; et al. Proc. Natl. Acad. Sci. USA 1996, 93, 15051-15056; Peterson, S. A.; et al. Proc. Natl. Acad. Sci. USA 1998, 95, 12956-12960; Baures, P. W.; et al. Bioorg. Med. Chem. 1998, 6, 1389-1401; Baures, P. W.; et al. Bioorg. Med. Chem. 1999, 7, 1339-1347; Petrassi, H. M.; et al. J. Am. Chem. Soc. 2000, 122, 2178-2192; McCammon, M. G.; et al. Structure 2002, 10, 851-863; Oza, V. B.; et al. J. Med. Chem. 2002, 45, 321-332; Sacchettini, J. C.; et al. Nature Rev. Drug Disc. 2002, 1, 267-275; Green, N. S.; et al. J. Am. Chem. Soc. 2003, 125, 13404-13414; Adamski-Werner, S. L.; et al. J. Med. Chem. 2004, 47, 355-374; Miller Sean, R.; et al. Lab. Inv. 2004, 84, 545-552). […] Therefore, when both the ligand and TTR are at equal concentrations, a population of TTR•I, TTR•I2 and unliganded TTR is observed, dictated by the dissociation constants. It is now established by other studies that inhibitor occupancy of only one of the two TTR binding sites is sufficient to stabilize the entire tetramer against amyloidogenesis (Wiseman, R. L.; et al. J. Am. Chem. Soc. 2005, in press). This is further supported by the observation herein that twenty-six of these dibenzofurans are excellent TTR amyloidogenesis inhibitors (<40% fibril formation) at a concentration equal to that of TTR (3.6 μM each, FIG. 3).

WT-TTR [2] = molecular target: T1, WT-TTR (Homo sapiens, UniProt P02766); assay: time course analysis of WT-TTR fibril formation inhibition (turbidity at 500 nm); assay type: biochemical; settings: WT-TTR 3.6 μM; for TTR amyloidogenesis mediated by partial acidification relative to control: inhibitor 7.2 and 3.6 μM, pH 4.4
T1 construct: made in house
Excerpt: (§1) The ability of these inhibitors to impose kinetic stability on tetrameric TTR is best evaluated by assessing the rate of TTR tetramer dissociation (Hammarstrom, P.; et al. Science 2003, 299, 713-716; Hammarstrom, P.; et al. Proc. Natl. Acad. Sci. USA 2002, 99, 16427-16432). Under acidic conditions tetramer dissociation leads to amyloidogenesis, whereas in the presence of chaotropes (6M urea), tetramer dissociation leads to monomer unfolding. The influence of inhibitors 25, 47 and 64, representing the three structural classes of dibenzofuran-based inhibitors, on the rates of tetramer dissociation under acid- and urea-mediated denaturing conditions was probed. […] The rate of TTR tetramer dissociation in 6M urea is easily monitored by linking the slow quaternary structural changes to rapid tertiary structural changes that are easily monitored by spectroscopic methods (Hammarstrom, P.; et al. Proc. Natl. Acad. Sci. USA 2002, 99, 16427-16432).
Time course analysis of WT-TTR fibril formation inhibition by compounds 25, 47, and 64. Compounds 25, 47, and 64 were dissolved in DMSO to provide 7.2 mM primary stock solutions (10× stocks), from which 5- and 10-fold DMSO dilutions yielded 1.44 mM (2×) and 0.72 mM (1×) secondary stock solutions, respectively. 495 μL of 0.4 mg/mL (7.2 μM) WT-TTR solution (10 mM sodium phosphate, 100 mM KCl, and 1 mM EDTA, pH 7.2), and 5 μL of either the 1.44 or 0.72 mM inhibitor secondary stock solutions were added to disposable UV cuvettes, vortexed briefly, then incubated for 30 min at 25° C. The pH was then adjusted to 4.4 with addition of 500 μL of acidic buffer (100 mM acetate, 100 mM KCl, 1 mM EDTA, pH 4.2), and the final 1 mL solutions were vortexed again and incubated in the dark at 37° C. without agitation. At 0, 4, 8, 12, 25, 49, 74, 100, 122, 145, and 169 h time points after acidification, the solutions were vortexed and the turbidity at 500 nm was measured. Control samples containing 5 μL of pure DMSO were prepared and analyzed as above for comparison. Small molecule and TTR control samples were prepared in groups of 10 to prevent disturbance of the cuvettes during incubation. Samples were discarded after their turbidities were measured.
FIG. 10 is a plot of the timecourse analysis of WT-TTR (3.6 μM) fibril formation mediated by partial acid denaturation in the absence (▴) and presence of 7.2 μM (⋄) and 3.6 μM (∘) inhibitors 25, 47, and 64, as measured by turbidity at 500 nm (see color scheme within Figure to differentiate inhibitors). It is hard to discern which compound is most efficacious in the black and white plot.

WT-TTR [3] = molecular target: T1, WT-TTR; assay: time course analysis of WT-TTR tetramer dissociation in urea (far-UV CD); assay type: biochemical; settings: for rate of TTR tetramer dissociation monitored by far-UV CD: 6M urea, TTR 3.6 μM, inhibitor 7.2 and 3.6 μM; for rank in tetramer dissociation time course at the end of the plot: after 169 hours, 6.0 M urea, WT-TTR 3.6 μM
Excerpt: as §1
Time course analysis of WT-TTR tetramer dissociation inhibition by compounds 25, 47, and 64 evaluated by linked-monomer unfolding in urea. Compounds 25, 47, and 64 were dissolved in DMSO to provide 10 mM primary stock solutions, from which 10-fold EtOH dilutions yielded 1 mM secondary stock solutions. 200 μL of 1.0 mg/mL (18 μM) WT-TTR solution (50 mM sodium phosphate, 100 mM KCl, and 1 mM EDTA, pH 7.2), and either 7.2 or 3.6 μL (2× and 1×, respectively) of 1 mM inhibitor secondary stock solutions were added to 2 mL eppendorf tubes, vortexed briefly, and incubated for 15 min at 25° C. 100 μL of the TTR•inhibitor solutions were added to 900 μL of urea buffer (6.67 M urea, 50 mM sodium phosphate, 100 mM KCl, 1 mM EDTA, pH 7.2), and the final 1 mL solutions were vortexed again and incubated in the dark at 25° C. without agitation. At 0, 4, 11, 24, 49, 73, 97, 122, 146, and 170 h time points after mixing with urea, the circular dichroism spectra were measured between […], with scanning every 0.5 nm and averaging for 5 s. After measurements were taken, samples were returned to their respective eppendorf tubes and incubation was continued. Control samples containing 7.2 μL of 10% DMSO in EtOH were prepared and analyzed as above for comparison. The CD amplitude values were averaged between 215 and 218 nm to determine the extent of β-sheet loss throughout the experiment. TTR tetramer dissociation is linked to the rapid (˜500,000× faster) monomer denaturation as measured through this β-sheet loss (Hammarstrom, P.; et al. Proc. Natl. Acad. Sci. USA 2002, 99, 16427-16432).
FIG. 11 is a plot of the timecourse analysis of WT-TTR (3.6 μM) tetramer dissociation (6.0 M urea) in the absence (▴) and presence of 7.2 μM (⋄) and 3.6 μM (∘) concentrations of inhibitors 25, 47, and 64 (see color scheme within Figure to differentiate inhibitors). Slow tetramer dissociation is not detectable by far-UV CD spectroscopy, but this process is linked to rapid (˜500,000× faster) monomer denaturation as monitored by loss of β-sheet content easily followed by circular dichroism spectroscopy. It is hard to discern which compound is most efficacious in the black and white plot.

Structure (SMILES): O=C(O)c1cccc2c1oc1c(C(=O)O)ccc(Nc3ccccc3C(F)(F)F)c12 [Compound 25]
- precipitation of compound in the absence of TTR [1]: no measurable precipitation
- TTR amyloidogenesis mediated by partial acidification relative to control (WT-TTR [2]): dramatically slowed in a dose-dependent fashion
- rate of TTR tetramer dissociation monitored by far-UV CD (WT-TTR [3]): markedly slowed in a dose-dependent fashion
- rank in tetramer dissociation time course at the end of the plot (WT-TTR [3]): most effective in dissociating tetramers

Structure (SMILES): O=C(O)c1cccc2c1oc1c(C(=O)O)ccc(-c3cc(C(F)(F)F)cc(C(F)(F)F)c3)c12 [Compound 64]
- TTR amyloidogenesis mediated by partial acidification relative to control (WT-TTR [2]): dramatically slowed in a dose-dependent fashion
- rate of TTR tetramer dissociation monitored by far-UV CD (WT-TTR [3]): markedly slowed in a dose-dependent fashion
- rank in tetramer dissociation time course at the end of the plot (WT-TTR [3]): followed by compound 64

Structure (SMILES): O=C(O)c1cccc2c1oc1c(C(=O)O)ccc(Oc3cc(Cl)cc(Cl)c3)c12 [Compound 47]
- precipitation of compound in the absence of TTR [1]: no measurable precipitation
- rank by fibrils formed at the end of the time course (WT-TTR [2]; after 169 hours, partial acid denaturation): shows the most fibrils formed
- TTR amyloidogenesis mediated by partial acidification relative to control (WT-TTR [2]): dramatically slowed in a dose-dependent fashion
- rate of TTR tetramer dissociation monitored by far-UV CD (WT-TTR [3]): markedly slowed in a dose-dependent fashion
